“And” between values parts separate entries of the source, which are not always exact repeats. Identical values can stand only once.
Experiments:
[1] = tested on: monocytes; assay: Whole blood monocyte phagocytosis assay (pHrodo E. coli BioParticles, flow cytometry); type: cell-based; settings: human whole blood, 1 h incubation, then pHrodo E. coli BioParticles 30 min, mean of four experiments
Procedure: AnxA1 N-terminal fragments were assessed in whole blood phagocytosis assay. Whole blood from human subjects (45 μL) was incubated for 1 h with control peptide Anxa1 2-50 (100 nM) and test peptides Compound 1 (100 nM), Compound 2 (100 nM) and Compound 3 (30 nM), or vehicle in a 96-well plate. 50 μl pHrodo E. coli BioParticles Conjugate (5 μg/well) was added to the wells, and the plate was incubated at 37° C., 5% CO2 for 30 min. 150 μl of 4% PFA was added, and the plate incubated at 4° C. for 30 min. 30 μL from each well of the 96-well plate was transferred into flow cytometry tubes with 500 μL RPMI 1640 and 1 μL of Vybrant DyeCycle dye. Tubes were incubated for 30 min at 37° C. and 5% CO2, followed by addition of 2.5 mL of RPMI 1640 Medium in each tube.
Samples were acquired on the Attune NxT Flow Cytometer. Monocyte phagocytosis was determined as an increase in pHrodo Green fluorescence relative to control sample.

[2] = tested on: polymorphonuclear leukocytes (PMNs); assay: PMN (neutrophil) chemotaxis, Transwell migration, CellTiter Glo readout; type: cell-based, human; settings: 10 uM compound in receiver wells; 1 h migration, 37 °C; PMNs from buffy coats of healthy volunteers
Procedure: AnxA1 N-terminal fragments were assessed in polymorphonuclear leukocytes (PMNs) isolated from buffy coats of healthy volunteers. PMNs were resuspended in migration medium (RPMI1640 (ATCC, Cat. No. 30-2001)+0.05% BSA-FAF) to a concentration of 5.5×10^6 cells/mL.
Receiver wells of a Transwell plate were filled with 200 μL of migration medium with 10 uM of compound 1, 2 or 3. Donor plate was inserted and 75 μL of cell suspension was added to upper wells ([…]). Plates were incubated for 1 h (37° C., 5% CO2, 95% humidity). The number of migrated cells was assessed by removing Transwell insert with cells from the plate in order to stop migration, followed by addition of 200 μL CellTiter Glo reagent to lower wells. Plates were incubated for 10 minutes in the dark (at room temperature), and 200 μL was transferred to white 96 well plates (Lumitrac 200). Luminescence was measured by use of EnVision 2104 (Perkin Elmer) (exposition time 0.1 s)
The chemotaxis response was estimated by calculating fold change compared to negative control (vehicle).

Sequence | Fold increase relative to vehicle (monocyte phagocytosis) ([1]; peptide 100 nM) [fold] | Fold increase relative to vehicle (monocyte phagocytosis) ([1]; peptide 100 nM, listed as AnxA1 2-50) [fold] | Fold increase relative to vehicle (PMN chemotaxis) [2] | Fold increase relative to vehicle (monocyte phagocytosis) ([1]; peptide 30 nM) [fold]
AMVSEFLKQAWFIENEEQEYVQTVKSSKGGPGSAVSPYPTFNPSSDVAA (Synthetic sequence having some homology with human annexin 1) [Anxa1 2-50, reference compound] | 1.9 | ~2 | – | –
AMVSEFLKQAWFIENEEQEYVQTLKSSKGGPGS (Val24Leu variant of AnxA1 fragment; MISC_FEATURE - Val24Leu variant of AnxA1 fragment) [Compound 2] | 2.8 | – | 2 fold and 2.0 fold | –
AMVSEFLKQAWFIENEEQEYVQTLKSSKGGPGSAVSPY (Val24Leu variant of AnxA1 fragment; MISC_FEATURE - Val24Leu variant of AnxA1 fragment) [Compound 3] | – | – | 1.6 fold | 2.9
AMVSEFLKQAWFIENEEQEYVQTLKSSK (Val24Leu variant of AnxA1 fragment; MISC_FEATURE - Val24Leu variant of AnxA1 fragment) [Compound 1] | 2.6 | – | 3 fold and 3.1 fold | –

— US20250388632A1, “ANNEXIN A1-DERIVED POLYPEPTIDE ANALOGUES” (RESOTHER PHARMA A/S, priority 2022, published 2025)
